Reference: patent US20150290148A1 (priority 2006, published 2015)
Entries after “also recorded” stand apart in the source; their conditions may differ.

Legend:
neurotrophic factor 3 = experiment: Quantitative real time PCR of hippocampal gene expression after IP injection; assay type: in vivo, Sprague-Dawley rats; conditions: 6 hours after single IP 1.0 mg/kg, vs saline
[1] = tested on: interleukin 10 (IL10) gene; experiment: as above; assay type: in vivo, Sprague-Dawley rats
male Wistar rats [2] = experiment: MCA embolic stroke in rats, infarct size by TTC staining; assay type: in vivo, rat
[3] = tested on: brain derived neurotrophic factor; experiment: Quantitative real time PCR of hippocampal gene expression after IP injection; assay type: in vivo, Sprague-Dawley rats; conditions: 6 hours after single IP 1.0 mg/kg, vs saline
gerbils [4] = experiment: Gerbil 5-min 2-VO transient cerebral ischemia, open field activity; assay type: in vivo; conditions: for distance traveled in open field: tested 48 hrs after surgery, 5 min
Procedure: (§1) Gerbils were anesthetized with isoflurane and core-body temperature maintained at 37-38 C during surgery using a homeothermic blanket (Harvard Apparatus, South Natick, USA). A midline incision was made in the neck and the common carotid arteries were isolated and occluded for 5 min using 85-gm pressure aneurysm clips (ISCH; n=14). A second group of gerbils (SHAM; n=14) underwent the identical procedure except the carotid arteries were not clamped. The incision was sutured and animals received MAP (5 mg/kg; i.p) or equal volume of vehicle (saline; 0 mg) within 2 minutes of reperfusion. Animals were placed in a warmed cage, and observed for 30 minutes. Tylenol (8 mg/ml) was added to drinking water to provide postoperative analgesia.
(§2) Each gerbil was tested 48 hrs following surgery in an open-field apparatus consisting of a metal screen floor 77 cm×77 cm with walls 15 cm in height. Animals were placed in the center region and permitted to explore the novel environment for 5 minutes. Behavioral data (distance traveled, speed) were collected using an automated tracking system (ANY-maze, Stoelting, Ill.) and evaluated separately using ANOVA and the appropriate post hoc test (P<0.05 considered significant). Twenty-one days postsurgery, gerbils were euthanized with CO2 and perfused with phosphate buffered saline followed by 4% paraformaldehyde. Tissue from sham gerbils treated with MAP ([…]) was not evaluated since acute administration of MAP was not expected to histologically alter the hippocampus of this group. Brains were removed and post-fixed for at least 48 hrs prior to collection of 40 μm vibratome sections through the hippocampal region. Sections were mounted on slides and stained with cresyl violet. Damage to the hippocampal CA1 region was evaluated without knowledge of treatment condition by two independent observers using a 4 point rating scale described elsewhere (Babcock et al. 1993). A score of 0 (4-5 compact layers of normal neuronal bodies), 1 (4-5 compact layers with presence of some altered neurons), 2 (spares neuronal bodies with “ghost spaces” and/or glial cells between them), 3 (complete absence or presence of only rare normal neuronal bodies with intense gliosis of the CA1 subfield) was assigned for each animal. Ratings were averaged and evaluated using nonparametric statistics (Kruskal-Wallis and Mann-Whitney U test; P<0.05 considered significant).

interleukin 6 (IL6) gene = experiment: Quantitative real time PCR of hippocampal gene expression after IP injection; assay type: in vivo, Sprague-Dawley rats; conditions: 6 hours after single IP 1.0 mg/kg
male Wistar rats [5] = experiment: MCA embolic stroke in rats, modified neurological severity score / neurobehavioral outcomes
Source text: Male Wistar rats at ages of 8-12 weeks, weighing 300-450 g were used in all experiments. A donor rat was anesthetized with 3.5% Isoflurane, and anesthesia was maintained with 1.0-1.5% Isoflurane in 70% N2O and 30% O2 using a face mask. […] Rats were then anesthetized with 3.5% Isoflurane, and anesthesia was maintained with 1.0-1.5% Isoflurane in 70% N2O and 30% O2 using a face mask throughout the surgical procedure. The animal's muzzle was placed in the face mask 2 cm from the surgical site. Rectal temperature was maintained at 37±″0.5° C. throughout the surgical procedure using an electric heating system. Under a surgical operating microscope) the right common carotid arteries (CCA), the right external carotid artery (ECA) and the internal carotid artery (ICA) were isolated via a 3 cm ventral neck midline incision. A 6-0 silk suture was loosely tied at the origin of the ECA and ligated at the distal end of the ECA. The right CCA and ICA was temporarily clamped using a curved microvascular clip (Codman & Shurtleff, Inc., Randolf, MAP, USA). A modified PE-50 catheter filled with a single clot (˜1 μl), was attached to a 100-μl Hamilton syringe, and introduced into the ECA lumen through a small puncture. The suture around the origin of the ECA was tightened around the intraluminal catheter to prevent bleeding, and the microvascular clip was removed. The catheter was gently advanced from the ECA into the lumen of the ICA. The clot along with 5 μl of saline in the catheter was injected into the ICA over 10 seconds. The catheter was withdrawn from the right ECA immediately after injection. The right ECA was ligated. The duration of the entire surgical procedure was approximately 25 min.
Implantation of osmotic pumps for the purpose of continuous IV infusion occurred at both 6 and 12 hours after delivery of the 4cm clot. Experimental control for the experiment was achieved by substituting methamphetamine for physiological saline. Briefly, at 6 or 12 hours post stroke animals were re-anesthetized using 1-3% isoflurane. After a state of anesthesia was achieved the right side groin area was shaved. After shaving, surgical tape was utilized to remove excess hair. The area was scrubbed with betadine and allowed to dry.
A small incision was made and the groin area was blunt dissected to expose the femoral vein. The femoral vein was separated with surgical tweezers and the distal end was permanently ligated using 6-0 silk thread. The proximal end was ligated and a 0.2 mm incision (approximate) was made in the femoral vein. A 2.5 cm length of polyvinyl tubing (OD 0.07mm) connected to a pre-loaded osmotic pump (Alzet Corp. model 2001D; 6.6 microliters per hour for 24 hrs) was inserted into the vein and gently pushed up towards midline of the body. The tubing was inserted until 0.5 cm was exposed from the vein. The tubing was tied around the vein in two locations using 6-0 silk spaced approximately 2 mm apart. A small pocket was blunt dissected along the groin/abdominal area. The osmotic pump was inserted into the area on the outer wall of the abdomen underneath the skin and sutured into the abdominal fascia using 4-0 synthetic suture. The incision was closed using 4-0 synthetic suture. At 48-72 hours after initial insertion the animal was anesthetized, the groin area was scrubbed with betadine, the incision was reopened, blunt dissected, and the pump exposed. The sutures holding the pump and tubing in place were cut, the pump removed, and the femoral vein was permanently ligated using 6-0 silk suture. The pump was discarded and the incision was closed using 4-0 synthetic suture.

hippocampal CA1 region = experiment: Gerbil 5-min 2-VO transient cerebral ischemia, histological rating of hippocampal CA1; assay type: in vivo; conditions: for damage to hippocampal CA1 following ischemic insult: MAP 5 mg/kg 1-2 minutes after ischemic insult
Procedure: as §1, §2

male Wistar rats [6] = experiment: MCA embolic stroke in rats, foot fault; assay type: in vivo, rat; conditions: 1.0 mg/kg/hr, started 0, 6 or 12 hours after stroke
[7] = rats; cited from earlier work
male Wistar rats [8] = experiment: Traumatic brain injury (fluid percussion) in rats, tolerability; assay type: in vivo, rat; conditions: 0.5 mg/kg/hr 24 hr IV infusion plus bolus after TBI
Procedure: Three groups of male Wistar rats/group were used in this study. The animals were given 0 (vehicle control; saline), 0 (sham controls) or 0.5 mg/kg/hr MA via a 24 hr continuous IV infusion starting 3 hr after […] on Day 0. The test article was administered via an Alzet mini-osmotic pump at a rate of 0.0073 mL/hour. The dose concentration of MA loaded in the Alzet pump varied between animals (45.8-65.0 mg/mL), and was based on individual animal body weight on Day 0 and the dose concentration that would yield 0.5 mg/kg/hr MA at an infusion rate of 0.0073 mL/hr. Dosing of the animals was staggered over a 4-month period.
Prior to test article administration, all rats were subjected to a surgical procedure to produce a fluid percussion injury. Adult Sprague-Dawley rats (male, 350-500 g) are anesthetized with isoflurane anesthesia (1% isofluorane in 1 L/min O2) via face mask to effect for a small craniectomy (4.80 mm) and placement of a rigid Luer-loc needle hub (3 mm inside diameter). After luer lock hub placement, the hub is connected to the Cell Injury Controller through high pressure rubber tubing that delivers an fluid pulse to the dura. […] The righting reflex time after injury was recorded. […] Animals were monitored 3-4 times a day for the first 48 hr following surgery and daily thereafter for 14 days.

male Wistar rats [9] = experiment: MCA embolic stroke in rats, adhesive tape removal test; assay type: in vivo, rat
BcL2 = experiment: Quantitative real time PCR of hippocampal gene expression after IP injection; assay type: in vivo, Sprague-Dawley rats; conditions: 6 hours after single IP 1.0 mg/kg, vs saline
gerbils [10] = experiment: Preliminary dose study and observations in gerbils following surgery; assay type: in vivo, gerbil
neuropeptide Y = experiment: Quantitative real time PCR of hippocampal gene expression after IP injection; assay type: in vivo, Sprague-Dawley rats; conditions: 6 hours after single IP 1.0 mg/kg, vs saline
[11] = 0.1 mg/kg/hr IV infusion 24 hrs, immediately after stroke
[12] = 1.0 mg/kg/hr IV infusion 24 hrs, started 6 hours after stroke
[13] = 1.0 mg/kg/hr IV infusion 24 hrs, started 6 hours after stroke, listed as MAP
[14] = 1.0 mg/kg/hr IV infusion 24 hrs, started 12 hours after stroke, listed as MAP
[15] = 0.5 and 1.0 mg/kg/hr IV infusion 24 hrs, immediately after stroke
[16] = 0.5 and 1.0 mg/kg/hr IV infusion 24 hrs, immediately after stroke, listed as MAP

CN[C@@H](C)Cc1ccccc1 [methamphetamine]
change in neurotrophic factor 3 gene expression in hippocampus (neurotrophic factor 3): +192% | change in IL10 gene expression in hippocampus ([1]; 1 hour after single IP 1.0 mg/kg, vs saline): 445% | IL10 expression in hippocampus vs saline ([1]; 6 hours after single IP 1.0 mg/kg): not significantly different from saline treated animals | infarct size / infarct volume at 7 days (male Wistar rats [2]; [11]): No significant reductions in infarct volumes | infarct size / infarct volume at 7 days (male Wistar rats [2]; 0.1 mg/kg/hr IV infusion 24 hrs, immediately after stroke, listed as MAP): failed to decrease the infarct size | infarct size / infarct volume at 7 days (male Wistar rats [2]; [12]): significant reduction in infarct volumes; also recorded: significantly reduces infarct size | infarct size / infarct volume at 7 days (male Wistar rats [2]; [13]): significantly reduced infarct size | infarct size / infarct volume at 7 days (male Wistar rats [2]; [14]): still significantly reduces infarct size | infarct size / infarct volume at 7 days (male Wistar rats [2]; [15]): reduces brain damage (infarct size); also recorded: significant reduction in infarct volumes | infarct size / infarct volume at 7 days (male Wistar rats [2]; [16]): decreased infarct size | infarct size / infarct volume at 7 days (male Wistar rats [2]; 0.5 and 1.0 mg/kg/hr IV infusion 24 hrs, immediately after stroke, listed as Methamphetamine): decreases infarct size | animals with substantial reduction in infarct volumes (male Wistar rats [2]; infusion beginning 12 hours after stroke): Four out of the nine | change in brain derived neurotrophic factor gene expression in hippocampus [3]: +141% | open field activity, SHAM+5 mg vs SHAM+0 mg (gerbils [4]; MAP 5 mg/kg i.p., 48 hrs after surgery): failed to significantly alter activity levels | open field activity, ischemic vs sham gerbils both treated with MAP (gerbils [4]; MAP 5 mg/kg i.p., 48 hrs after surgery, listed as MAP): not significantly different; also recorded: comparable to control levels | distance traveled in open field (gerbils [4]; ischemic gerbils, MAP 5 mg/kg i.p. within 2 min of reperfusion): 66.3 m | distance traveled in open field (gerbils [4]; sham gerbils, MAP 5 mg/kg i.p.): 72.7 m | IL6 expression in hippocampus vs saline (interleukin 6 (IL6) gene): not significantly different from saline treated animals | neurobehavioral outcomes (neurological severity score) (male Wistar rats [5]; [11]): improved neurobehavioral outcomes | neurobehavioral outcomes (neurological severity score) (male Wistar rats [5]; [12]): significant improvement in neurological severity scores; also recorded: significantly decreased neurobehavioral deficits | neurobehavioral outcomes (neurological severity score) (male Wistar rats [5]; [13]): improved neurobehavioral outcomes on all testing parameters | neurobehavioral outcomes (neurological severity score) (male Wistar rats [5]; 1.0 mg/kg/hr IV infusion 24 hrs, started 12 hours after stroke): significant improvement in neurological severity scores; also recorded: significantly decreased neurobehavioral deficits | neurobehavioral outcomes (neurological severity score) (male Wistar rats [5]; [14]): robust effect on neurobehavioral outcomes | neurobehavioral outcomes (neurological severity score) (male Wistar rats [5]; [15]): significant improvement in neurological severity scores | neurobehavioral outcomes (neurological severity score) (male Wistar rats [5]; [16]): improved neurobehavioral outcomes | histological rating score of hippocampal CA1 damage (0-3 scale) (hippocampal CA1 region; ISCH+5 mg MAP group, 21 days after ischemic insult): 0.07±0.07 | damage to hippocampal CA1 following ischemic insult (hippocampal CA1 region; 21 days): significantly reduced damage to the hippocampal CA1; also recorded: failed to exhibit any damage to the hippocampus | damage to hippocampal CA1 following ischemic insult (hippocampal CA1 region; 21 days, listed as MAP): prevented any significant loss of hippocampal CA1 pyramidal cells | animals with any detectable neuronal pathology in the hippocampus (hippocampal CA1 region; ischemic gerbils treated with MAP 5 mg/kg, 21 days): 1 of 7 | foot fault values (male Wistar rats [6]): significant improvements in foot fault values | half-life [7]: approximately 1 hr | tolerability (male Wistar rats [8]): well tolerated with no toxicity | time to remove adhesive tape, day 7 vs day 1 (male Wistar rats [9]; [11]): no significant change in the time to remove tape | time to remove adhesive tape, day 7 vs day 1 (male Wistar rats [9]; 1 mg/kg/hr started 6 hours after stroke): improvement in function was still observed | time to remove adhesive tape, day 7 vs day 1 (male Wistar rats [9]; 1 mg/kg/hr withheld until 12 hours after stroke (data not shown)): failed to produce an effect | time to remove adhesive tape, day 7 vs day 1 (male Wistar rats [9]; 0.5 or 1.0 mg/kg/hr IV infusion 24 hrs, immediately after stroke): required significantly less time to remove the tape | change in BcL2 gene expression in hippocampus (BcL2): +167% | lethality in gerbils following surgery (gerbils [10]; doses greater than 5 mg/kg (10 and 20 mg/kg)): lethal | clinical observation after treatment (gerbils [10]; gerbils, MAP 5 mg/kg i.p. after surgery): became piloerect with their tails pointing up | change in neuropeptide Y gene expression in hippocampus (neuropeptide Y): +192%
